# Assays:
# HCC cells SNU398 = assay: CCK-8 cell proliferation assay, SNU398 cells; format: cell-based; conditions: for IC50: Homo sapiens, SNU-398, SNU398 cells (high RECQL4 expression), 48 h culture, CCK-8, OD 450 nm, Mean ± S.E.M; for IC50 on HCC cells SNU398 compared with IC50 on hepatocytes LO2 (selectivity in words): SNU398 versus LO2, CCK-8, 48 h
# Protocol: (§1) The effects of the above-prepared rhein amide derivatives on cell proliferation were detected by a CCK-8 kit.
# (§2) The CCK-8 kit can evaluate a proliferation activity of cells by detecting an absorbance at a 450 nm wavelength. SNU398 and LO2 cells were digested to obtain a cell suspension, the cell suspension was diluted with a medium to a density of about 5×10^3 cells/well, 100 µl of cell liquid was added to each well, and a blank group and a negative control group were set up. About 1.0000 mg of the derivative was added in a 0.5 mL EP tube, mixed with dimethyl sulfoxide (DMSO) to prepare a 5×10^-2 M stock solution, and stored at -20° C.
# (§3) The stock solutions of 21 compounds prepared in the examples and comparative examples were diluted to final concentrations of 100 µmol/L, 20 µmol/L, 4 µmol/L, 0.8 µmol/L, and 0.16 µmol/L separately using a concentration gradient stepwise dilution method. An original medium in a 96-well plate was discarded by aspiration, 100 µl of the dilutions of the 17 compounds were added to the 96-well plate, and three parallel wells were set up. The dilutions were culture in a cell culture incubator for 48 h. […] A stronger inhibitory ability led to a lower IC50 value, and results were listed in Table 1; statistical analysis and drawing of experimental data was conducted using Graphpad-prism 6.0 software, and a mean ± standard deviation was expressed as (Mean ± S.E.M).
# hepatocytes LO2 = assay: CCK-8 cell proliferation assay, LO2 cells; format: cell-based; conditions: Hepatocyte, 48 h culture, CCK-8, OD 450 nm, Mean ± S.E.M
# Protocol: as §1, §2, §3
Compound,IC50 (HCC cells SNU398) [µM],IC50 (hepatocytes LO2) [µM],melting point [°C],IC50 on HCC cells SNU398 compared with IC50 on hepatocytes LO2 (selectivity in words) (HCC cells SNU398)
"COC(=O)C(CC(C)C)NC(=O)c1cc(O)c2c(c1)C(=O)c1cccc(O)c1C2=O (centres unmarked) [Comparative Example 1, methyl (4,5-dihydroxy-9,10-dioxo-9,10-dihydroanthracene-2-carbonyl)leucine]",25.9 ± 6.94,0.81 ± 0.16,175.1 to 176.3,
"CCC(C)C(NC(=O)c1cc(O)c2c(c1)C(=O)c1cccc(O)c1C2=O)C(=O)OC (centres unmarked) [Comparative Example 2, methyl 2-(4,5-dihydroxy-9,10-dioxy-9,10-dihydroanthracene-2-carboxamide)-3-methylvalerate]",470 ± 84.2,80.4 ± 2.36,179.7 to 182.3,
"CCOC(=O)C(CC(C)C)NC(=O)c1cc(O)c2c(c1)C(=O)c1cccc(O)c1C2=O (centres unmarked) [Comparative Example 3, ethyl(4,5-dihydroxy-9,10-dioxo-9,10-dihydroanthracene-2-carbonyl)leucinate]",188 ± 94.4,57.1 ± 3.25,167.9 to 170,
CCOC(=O)C(NC(=O)c1cc(O)c2c(c1)C(=O)c1cccc(O)c1C2=O)C(C)CC (centres unmarked) [Comparative Example 4],47.1 ± 11.5,18.2 ± 1.56,167 to 167.5,
"CCOC(=O)C(Cc1ccccc1)NC(=O)c1cc(O)c2c(c1)C(=O)c1cccc(O)c1C2=O (centres unmarked) [Comparative Example 5, ethyl (4,5-dihydroxy-9,10-dioxy-9,10-dihydroanthracene-2-carbonyl) phenylalaninate]",166 ± 7.62,228 ± 7.25,171 to 172.7,
"CCOC(=O)C(CCSC)NC(=O)c1cc(O)c2c(c1)C(=O)c1cccc(O)c1C2=O (centres unmarked) [Comparative Example 6, ethyl(4,5-dihydroxy-9,10-dioxo-9,10-dihydroanthracene-2-carbonyl)methioninate]",19.8 ± 1.23,7.77 ± 0.45,177.2 to 178,
"CCOC(=O)C(NC(=O)c1cc(O)c2c(c1)C(=O)c1cccc(O)c1C2=O)C(C)C (centres unmarked) [Comparative Example 7, ethyl(4,5-dihydroxy-9,10-dioxo-9,10-dihydroanthracene-2-carbonyl)valerate]",161 ± 4.53,13.7 ± 0.89,202.1 to 202.7,
"CC(C)CNC(=O)c1cc(O)c2c(c1)C(=O)c1cccc(O)c1C2=O [Comparative Example 8, 4,5-dihydroxy-N-isobutyl-9,10-dioxy-9,10-dihydroanthracene-2-carboxamide]",,118 ± 12.3,,
"COc1ccc(CNC(=O)c2cc(O)c3c(c2)C(=O)c2cccc(O)c2C3=O)cc1 [Comparative Example 9, 4,5-dihydroxy-N-(4-methoxybenzyl)-9,10-dioxy-9,10-dihydroanthracene-2-carboxamide]",111 ± 12.5,106 ± 9.72,244.5 to 249.4,
"CC(=O)c1ccc(N2CCN(C(=O)c3cc(O)c4c(c3)C(=O)c3cccc(O)c3C4=O)CC2)cc1 [Comparative Example 10, 3-(4-(4-acetylphenyl)piperazin-1-carbonyl)-1,8-dihydroxyanthracene-9,10-dione]",222 ± 18.7,104 ± 9.96,270.1 to 272.2,
"COC(=O)C(C)NC(=O)c1cc(O)c2c(c1)C(=O)c1cccc(O)c1C2=O (centres unmarked) [Example 1, methyl(4,5-dihydroxy-9,10-dioxy-9,10-dihydroanthracene-2-carbonyl) alaninate]",0.46 ± 0.08,5.41,236.3 to 237.9,much smaller than the IC50 on hepatocytes LO2
"CCOC(=O)C(CC)NC(=O)c1cc(O)c2c(c1)C(=O)c1cccc(O)c1C2=O (centres unmarked) [Example 2, ethyl 2-(4,5-dihydroxy-9,10-dioxy-9,10-dihydroanthracene-2-carboxamide)butanoate]",8.81 ± 0.78,104 ± 9.36,196.7 to 197.2,much smaller than the IC50 on hepatocytes LO2
"CCOC(=O)CCC(NC(=O)c1cc(O)c2c(c1)C(=O)c1cccc(O)c1C2=O)C(=O)OCC (centres unmarked) [Example 3, diethyl(4,5-dihydroxy-9,10-dioxo-9,10-dihydroanthracene-2-carbonyl) glutamate]",66.8 ± 2.21,114 ± 4.11,202 to 202.3,
"CCOC(=O)CC(NC(=O)c1cc(O)c2c(c1)C(=O)c1cccc(O)c1C2=O)C(=O)OCC (centres unmarked) [Example 4, diethyl(4,5-dihydroxy-9,10-dioxo-9,10-dihydroanthracene-2-carbonyl)aspartate]",27.9 ± 3.45,117,174.7 to 175.2,much smaller than the IC50 on hepatocytes LO2
"CCCNC(=O)c1cc(O)c2c(c1)C(=O)c1cccc(O)c1C2=O [Example 5, 4,5-dihydroxy-9,10-dioxo-n-propyl-9,10-dihydroanthracene-2-carboxamide]",116 ± 5.25,228 ± 10.8,264.1 to 265,
"CCCCNC(=O)c1cc(O)c2c(c1)C(=O)c1cccc(O)c1C2=O [Example 6, N-butyl-4,5-dihydroxy-9,10-dioxy-9,10-dihydroanthracene-2-carboxamide]",5.85 ± 0.49,113 ± 8.56,215.2 to 215.9,much smaller than the IC50 on hepatocytes LO2
CCOC(=O)N1CCN(C(=O)c2cc(O)c3c(c2)C(=O)c2cccc(O)c2C3=O)CC1 [Example 7],19 ± 1.96,26.3 ± 15.8,222.2 to 222.8,

# From US20230174497A1, “RHEIN AMIDE DERIVATIVE AND PREPARATION METHOD AND USE THEREOF, AND INHIBITOR OF HEPATOCELLULAR CARCINOMA (HCC) WITH SPECIFIC RECQL4 EXPRESSION” (Shandong First Medical University & Shandong Academy of …, priority 2021, published 2023)
